Source: US20230078764A1 (Yumanity Therapeutics, Inc., priority 2019, published 2023)

Columns and labels:
human SCD5 = biological target: T1, human SCD5 (Homo sapiens, UniProt Q86SK9); test: Growth inhibition of yeast strain expressing human SCD5 as sole desaturase (OLE1 deleted), OD600 readout; format: cell-based; settings: yeast strain expressing human SCD5 as sole desaturase; growth (OD600) after 40 h at 30° C.; read-out: SCD5 IC50
T1 construct: expressed in transfected cells; host or cells: yeast strain with OLE1 deleted, plasmid-borne human SCD5 (selected in SD-Ura)
T1 sequence (Q86SK9 1-330): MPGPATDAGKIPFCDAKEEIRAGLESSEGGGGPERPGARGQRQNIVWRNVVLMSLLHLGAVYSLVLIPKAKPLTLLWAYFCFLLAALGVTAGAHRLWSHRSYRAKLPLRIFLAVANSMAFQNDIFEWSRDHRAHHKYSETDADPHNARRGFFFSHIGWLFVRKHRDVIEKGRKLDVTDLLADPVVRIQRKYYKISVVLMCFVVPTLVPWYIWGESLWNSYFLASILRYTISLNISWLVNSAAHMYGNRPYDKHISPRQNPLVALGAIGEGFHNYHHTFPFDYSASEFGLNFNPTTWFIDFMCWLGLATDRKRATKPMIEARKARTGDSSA

human SCD1 = biological target: T2, human SCD1 (Homo sapiens, UniProt O00767); test: Growth inhibition of yeast strain expressing human SCD1 as sole desaturase (OLE1 deleted), OD600 readout; format: cell-based; settings: yeast strain expressing human SCD1 as sole desaturase; growth (OD600) after 40 h at 30° C.; read-out: SCD1 IC50
T2 construct: expressed in transfected cells; host or cells: yeast strain with OLE1 deleted, plasmid-borne human SCD1 (selected in SD-Ura)
T2 sequence (O00767 1-359): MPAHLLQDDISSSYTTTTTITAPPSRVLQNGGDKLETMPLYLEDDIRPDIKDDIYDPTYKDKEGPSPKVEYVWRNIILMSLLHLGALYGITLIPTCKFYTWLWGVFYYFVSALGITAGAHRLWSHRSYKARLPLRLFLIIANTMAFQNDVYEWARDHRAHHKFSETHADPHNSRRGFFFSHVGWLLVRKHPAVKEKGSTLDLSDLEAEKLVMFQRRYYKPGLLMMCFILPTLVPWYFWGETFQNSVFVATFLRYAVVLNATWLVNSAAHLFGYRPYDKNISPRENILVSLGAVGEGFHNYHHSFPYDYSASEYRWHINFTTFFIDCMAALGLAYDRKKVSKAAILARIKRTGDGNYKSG

SMILES: Cn1nc(C(=O)Nc2ccc(Cc3ccc(F)c(Cl)c3)cn2)cc1O [Compound 323]
- IC50 (human SCD5): 0.81 µM
- IC50 (human SCD1): 10.7 µM

SMILES: Cn1nc(C(=O)Nc2ccc(Cc3ccc(F)c(F)c3)cn2)cc1O [Compound 324]
- IC50 (human SCD5): 1.13 µM
- IC50 (human SCD1): > 45 µM

SMILES: Cn1nc(C(=O)Nc2ccc(Cc3cc(F)cc(F)c3)cn2)cc1O [Compound 325]
- IC50 (human SCD5): 0.66 µM
- IC50 (human SCD1): 16.4 µM

SMILES: CCn1cc(C(=O)Nc2ccc(CC3CCCCC3)cn2)ccc1=O [Compound 326]
- IC50 (human SCD5): 4.71 µM
- IC50 (human SCD1): > 45 µM

SMILES: N#Cc1ccc(C(=O)Nc2ccc(CC3CCCCC3)cn2)cn1 [Compound 327]
- IC50 (human SCD5): 1.32 µM
- IC50 (human SCD1): > 45 µM

SMILES: Cn1cccc(C(=O)Nc2ccc(Cc3ccc(F)c(F)c3)cn2)c1=O [Compound 328]
- IC50 (human SCD5): 0.01 µM
- IC50 (human SCD1): 1.76 µM

SMILES: Cn1cccc(C(=O)Nc2ccc(Cc3cc(F)cc(F)c3)cn2)c1=O [Compound 329]
- IC50 (human SCD5): 0.01 µM
- IC50 (human SCD1): 0.1 µM

SMILES: Cn1cccc(C(=O)Nc2ccc(Cc3cccc(Cl)c3)cn2)c1=O [Compound 330]
- IC50 (human SCD5): 0.01 µM
- IC50 (human SCD1): 0.57 µM

SMILES: Cn1cccc(C(=O)Nc2ccc(Cc3ccc(F)c(Cl)c3)cn2)c1=O [Compound 331]
- IC50 (human SCD5): 0.01 µM
- IC50 (human SCD1): 0.13 µM

SMILES: CCn1cccc(C(=O)Nc2ccc(Cc3cccc(F)c3)cn2)c1=O [Compound 332]
- IC50 (human SCD5): 0.48 µM
- IC50 (human SCD1): 1.68 µM

SMILES: C=Cc1ncc(C(=O)Nc2ccc(Cc3cccc(Cl)c3)cn2)cc1F [Compound 333]
- IC50 (human SCD5): 0.18 µM
- IC50 (human SCD1): 0.11 µM

SMILES: O=C(Nc1ccc(Cc2cccc(F)c2)cn1)c1cc(Br)sn1 [Compound 334]
- IC50 (human SCD5): 9.39 µM
- IC50 (human SCD1): > 45 µM

SMILES: Cn1ccc(C(=O)Nc2ccc(Cc3cccc(F)c3)cn2)nc1=O [Compound 335]
- IC50 (human SCD5): 0.69 µM
- IC50 (human SCD1): 15.4 µM

SMILES: Cn1cc(C(=O)N[C@H]2CC[C@H](Cc3cccc(Cl)c3)CC2)ccc1=O [Compound 336]
- IC50 (human SCD5): 4.27 µM
- IC50 (human SCD1): > 45 µM

SMILES: Cn1cc(C(=O)Nc2ccc(C#CC3CC3)cn2)ccc1=O [Compound 337]
- IC50 (human SCD5): 9.87 µM
- IC50 (human SCD1): > 45 µM

SMILES: Cn1nc(C(=O)Nc2cc(Cc3ccc(Cl)cc3)ccn2)ccc1=O [Compound 338]
- IC50 (human SCD5): 16.3 µM
- IC50 (human SCD1): > 45 µM

SMILES: CC1(C)CN(C(=O)c2ccc(Cc3cccc(F)c3)cn2)CCO1 [Compound 339]
- IC50 (human SCD5): 17.7 µM
- IC50 (human SCD1): > 45 µM

SMILES: CN1N=C(C(=O)Nc2ncc(Cc3cccc(C(F)(F)F)c3)s2)CCC1=O [Compound 340]
- IC50 (human SCD5): 0.12 µM
- IC50 (human SCD1): 0.09 µM

SMILES: CN1N=C(C(=O)Nc2ncc(Cc3ccc(C#N)cc3)s2)CCC1=O [Compound 341]
- IC50 (human SCD5): 2.7 µM
- IC50 (human SCD1): > 45 µM

SMILES: Cn1cc(C(=O)Nc2ccc(Nc3cccc(Cl)c3)cn2)ccc1=O [Compound 342]
- IC50 (human SCD5): 20.9 µM
- IC50 (human SCD1): > 45 µM

SMILES: CN1N=C(C(=O)Nc2ccc(Cc3cccc(F)c3)s2)CCC1=O [Compound 343]
- IC50 (human SCD5): 3.42 µM
- IC50 (human SCD1): 3.14 µM

SMILES: O=C(Nc1ccc(Cc2cccc(F)c2)cn1)c1ccn2cnnc2c1 [Compound 344]
- IC50 (human SCD5): 26.3 µM
- IC50 (human SCD1): > 45 µM

SMILES: Cn1nc(C(=O)Nc2nnc(Cc3cccc(F)c3)s2)ccc1=O [Compound 345]
- IC50 (human SCD5): 2.52 µM
- IC50 (human SCD1): 3.95 µM

SMILES: Cn1nc(C(=O)Nc2nnc(Cc3cc(F)cc(Cl)c3)s2)ccc1=O [Compound 346]
- IC50 (human SCD5): 0.55 µM
- IC50 (human SCD1): 0.34 µM

SMILES: Cn1nc(C(=O)Nc2nnc(Cc3ccc(F)c(Cl)c3)s2)ccc1=O [Compound 347]
- IC50 (human SCD5): 0.71 µM
- IC50 (human SCD1): 0.68 µM

SMILES: CN(Cc1ccc(C(=O)Nc2ccc(Cc3cccc(Cl)c3)cn2)cn1)C(=O)OC(C)(C)C [Compound 348]
- IC50 (human SCD5): 4.96 µM
- IC50 (human SCD1): 7.37 µM

SMILES: Cn1cc(C(=O)Nc2ccc(Nc3cccc(F)c3)cn2)ccc1=O [Compound 349]
- IC50 (human SCD5): 32.3 µM
- IC50 (human SCD1): > 45 µM

SMILES: Cn1cc(C(=O)Nc2nnc(Cc3ccc(F)c(Cl)c3)s2)ccc1=O [Compound 350]
- IC50 (human SCD5): 5.42 µM
- IC50 (human SCD1): 2.6 µM

SMILES: Cn1nc(C(=O)Nc2cnc(Cc3cccc(Cl)c3)nc2)ccc1=O [Compound 351]
- IC50 (human SCD5): 35.5 µM
- IC50 (human SCD1): > 45 µM

SMILES: Cn1cc(NCc2ccc(Cc3cccc(F)c3)cn2)ccc1=O [Compound 352]
- IC50 (human SCD5): 35.5 µM
- IC50 (human SCD1): > 45 µM

SMILES: Cn1cc(C(=O)Nc2nc(C#N)c(Cc3cccc(F)c3)s2)ccc1=O [Compound 353]
- IC50 (human SCD5): 1.36 µM
- IC50 (human SCD1): 1.94 µM

SMILES: CC(=O)c1ccc(C(=O)Nc2ccc(Cc3cccc(Cl)c3)cn2)cn1 [Compound 354]
- IC50 (human SCD5): 0.28 µM
- IC50 (human SCD1): 6.78 µM
